Measured values published in patent publication US20210222181A1, “BACTERIAL VECTORS FOR GENETIC MANIPULATION OF BACTERIA” (BIOVERSYS AG, priority 2018, published 2021).

Test system: clinical P. aeruginosa strains
Assay: Inhibition of motility of clinical P. aeruginosa strains on LB-agar plates
Type: cell-based, Pseudomonas aeruginosa
Conditions: three clinical isolates of P. aeruginosa, 10 μg/ml C15 in LB-agar, 16 h at 37° C., compared with absence of C15
Procedure: Motility of clinical P. aeruginosa strains was inhibited by 12-Methyl-tetradecanoic acid (C15). Three different clinical isolates of P. aeruginosa were plated on LB-agar plates in the absence (FIG. 9, left) and presence (FIG. 9, right) of 10 μg/ml C15 to inhibit cellular motility. The plates were incubated for 16 h at 37° C. […] In contrast, in the absence of C15, the colonies are diffuse and swarm into each other, making the selection of distinct single colonies in the knock-out screening process very difficult.

CCC(C)CCCCCCCCCCC(=O)O (centres unmarked) [C15, 12-Methyl-tetradecanoic acid]
cellular motility / colony morphology on Luria Bertani agar plates: inhibited the cellular motility, leading to small well-defined colonies
cellular motility / colony morphology on Luria Bertani agar plates (listed as 12-Methyl-tetradecanoic acid (C15)): Inhibition of the motility
